Source: PMC7582192, “Targeting N-myristoylation for therapy of B-cell lymphomas” (Nature Communications, 2020)

Target: T1, Lyn (Homo sapiens, UniProt P07948)
T1 construct: endogenous Lyn in BL2 cells
Experiment: western blot of P-Lyn (Y396) in anti-IgM stimulated BL2 cells, […] for […] h
Format: cell-based

T1 sequence (P07948 2-512): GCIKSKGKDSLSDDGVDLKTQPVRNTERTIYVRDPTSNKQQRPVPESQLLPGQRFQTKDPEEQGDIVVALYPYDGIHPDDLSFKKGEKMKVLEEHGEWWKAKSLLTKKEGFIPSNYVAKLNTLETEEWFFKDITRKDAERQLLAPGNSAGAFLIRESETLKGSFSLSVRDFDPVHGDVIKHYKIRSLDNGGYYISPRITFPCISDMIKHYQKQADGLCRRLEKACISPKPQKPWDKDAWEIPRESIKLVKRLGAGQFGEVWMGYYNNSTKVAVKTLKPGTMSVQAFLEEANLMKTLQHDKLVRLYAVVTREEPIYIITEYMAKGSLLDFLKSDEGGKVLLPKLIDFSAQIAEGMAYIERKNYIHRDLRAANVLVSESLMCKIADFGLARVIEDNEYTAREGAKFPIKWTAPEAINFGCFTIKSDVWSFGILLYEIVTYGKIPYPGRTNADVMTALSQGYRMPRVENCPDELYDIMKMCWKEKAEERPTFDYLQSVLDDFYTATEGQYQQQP

Cc1nc(Nc2ncc(C(=O)Nc3c(C)cccc3Cl)s2)cc(N2CCN(CCO)CC2)n1 [dasatinib]
western blot of P-Lyn (Y396) in anti-IgM stimulated BL2 cells, 0.1 or 1.0 μM for: Dasatinib and ibrutinib selectively inhibited their respective targets as measured using anti-P-Lyn, anti-P-SFKs, and anti-P-BTK antibodies
